Data as given in patent US20050267016A1, “CD-10 activated prodrug compounds” (priority 2001, published 2005).
Like-named read-outs stand apart in the source and are kept apart here. Marks after values point to notes of the source that are not given here.

Tests used:
Namalwa cells (CD10pos) = experiment: cells; type: cell-based; settings: for IC50: 24 hours; for Ratio Ball-1:Namalwa: ratio of IC50
Protocol: Suspension cells, BALL-1, Ramos and Namalwa cells were cultured in RPMI media containing 10% heat inactivated fetal calf serum (FCS). On the day of the study, the cells were collected, washed and resuspended at a concentration of 0.5×10^6 cells/ml in RPMI containing 10% FCS. 100 µl of cell suspension was added to 96 well plates. […] Finally 10 μl of a 100 μCi/ml ^3H-thymidine was added per well and the plates were incubated for 24 hours. The plates were harvested using a 96 well Harvester (Packard Instruments) and counted on a Packard Top Count counter. Four parameter logistic curves were fitted to the ^3H-thymidine incorporation as a function of drug molarity using Prism software to determine IC50 values.

[1] = Metabolism and clearance in normal mice (plasma and urine, LC MS/MS); type: in vivo; settings: for dose excreted: iv, 117 mg/kg
Protocol: The metabolism and clearance of Suc-Ile-Ala-Leu-Dox was studied in normal mice. The mice were administered Suc-Ile-Ala-Leu-Dox at a single intravenous bolus dose of 117 mg/kg. Plasma samples were obtained at 1 and 4 hours. Plasma samples of 100 μl were transferred to microcentrifuge tubes (1.5 mL) and an internal standard of daunorubicin (20 μL at 0.5 mg/ml) was added together with acetonitrile (400 μl). The tubes were capped and briefly vortexed followed by centrifugation at 14,000 rpm. 420 μl from each tube was removed and dried in vacuo. Each sample was reconstituted in 65 μl 20 mM aqueous ammonium formate pH 4.5 buffer (AF) containing acetonitrile (20%) prior to analysis by reverse phase liquid chromatography in combination with tandem mass spectrometry (LC MS/MS).
Urine was collected at 2 and 24 hours post administration from pairs of mice in metabolic cages. Urine samples were diluted with AF containing acetonitrile (20%) to give a target analyte concentration within the practical range of the LC MS/MS assay. 30 μl of each diluted sample was placed in an Eppendorf tube (1.5 ml) and an internal standard of daunorubicin (20 μL at 0.5 mg/ml) was added together with 50 μl of AF containing acetonitrile (20%). Each sample was then analyzed by LC MS/MS.
An Agilent HP1100 HPLC with DAD detector and Chemstation software was coupled to a PE Sciex API 365 mass spectrometer with an electrospray ion source. HPLC was performed on a TSK-Gel Super ODS, […], 4.6×50 mm (TosoHaas) reversed phase column equipped with a […] C18 guard disc (Higgins Analytical) and stainless steel frit (Upchurch Scientific). Chromatography was performed at room temperature. The flow rate was 0.5 ml/min. Injection volume was 50 μL. Gradient elution was performed using a mobile phase of 20 mM aqueous AF pH 4.5 buffer with increasing amounts of acetonitrile. The API 365 was operated at 365° C. in a multiple reaction monitoring mode, set to monitor specific analyte parent-daughter ion pairs. Integration of chromatograms was performed by MacQuant software (PE Sciex) and quantitation of each analyte obtained by comparison to previously obtained calibration curves. Daunorubicin was used as an internal standard in all cases.
For the calculation of percent of administered dose, plasma volume was estimated to be 40% of blood volume, which was calculated as 7% of animal's body weight. At 2 and 24 hours the parent compound was detected in urine at 3.9% and 15.0% of the administered dose, showing that the kidney is a major organ of excretion for the prodrug (FIG. 17).
Plasma samples were obtained at 1 and 4 hours from separate mice. Urine was collected at 2 and 24 hours post administration from pairs of mice in metabolic cages. The plasma and urine samples were prepared and analyzed as described in Example 17.

LNCaP xenografts = experiment: LNCaP xenograft in SCID mice, Q6DX2, equitoxic comparison (Example 27); type: in vivo, C.B-17.SCID mice
Protocol: All compounds except Suc-βAla-Leu-Ala-Leu-Dox (three levels) were dosed at two levels with the goal to get a dose response for all compounds.
Knowing that the LNCaP tumor bearing nude mice have weight loss, we chose very conservative dose levels for each compound estimated to be well-tolerated equitoxic doses based on earlier studies and SD-MTD results. The high dose level for repeat dosing is usually 80% of their SD-MTD, and the low dose level is 80% of the high dose level. Accordingly, groups of ten male CD17.SCID mice, subcutaneously injected with 2.5 million LNCaP cells, were treated intravenously with the compounds at the levels described in Table 22 at six day intervals for a total of two identical doses (Q6DX2).
LNCaP tumors grew well in SCID mice, but the SCID mice with LNCaP tumor xenografts experienced severe weight loss, as 80% of control mice had more than 25% of weight loss by the end of the study. Nevertheless, the efficacy of different treatments at approximately equitoxic levels were compared based on the time it took for 50% of mice to reach toxic weight loss and the total numbers of mice with toxic weight loss at the end of study.

[2] = system: LNCaP prostate carcinoma xenograft; experiment: LNCaP prostate carcinoma xenograft in nude mice, Q7D × 3 (Examples 30, 31); settings: for Toxic Endpoint: >20% body weight loss; for Cancer Endpoint: tumors reaching 1000 mg
Protocol: In this model, 7.5 million LNCaP cells resuspended in 0.1 ml of phosphate buffered saline and 0.1 ml of Matrigel (Becton Dickinson) were injected into the side of male nude mice fed on high fat diet.

normal ICR mice = experiment: Second single dose Maximum Tolerated Dose (SD-MTD) study, 49 days
Protocol: In a second single dose Maximum Tolerated Dose (SD-MTD) study, groups of five normal ICR mice were administered intravenous bolus doses of Suc-βAla-Leu-Ala-Leu-Dox. The mice were observed daily for 49 days and body weights measured twice weekly.
In a second single dose Maximum Tolerated Dose (SD-MTD) study, groups of five normal ICR mice were administered intravenous bolus doses of Suc-Leu-Ala-Leu-Dox. The mice were observed daily for 49 days and body weights measured twice weekly.
In a second single dose Maximum Tolerated Dose (SD-MTD) study, groups of five normal ICR mice were administered intravenously bolus doses of Suc-Ile-Ala-Leu-Dox. The mice were observed daily for 49 days and body weights measured twice weekly.
In a second single dose Maximum Tolerated Dose (SD-MTD) study, groups of five normal ICR mice were administered intravenous bolus doses of Suc-βAla-Ile-Ala-Leu-Dox. The mice were observed daily for 49 days and body weights measured twice weekly.

[3] = Pharmacokinetic/metabolism study, single IV bolus; settings: for Major Plasma Metabolite: mice
Protocol: Plasma was obtained from three individual animals in each group at 5 minutes, 1, 2, 4, or 6 hr.

[4] = single IV bolus approximately 100 μmol/Kg

## COc1cccc2c1C(=O)c1c(O)c3c(c(O)c1C2=O)C[C@@](O)(C(=O)CO)C[C@@H]3O[C@H]1C[C@H](N)[C@H](O)[C@H](C)O1 [Doxorubicin, reference compound]
Namalwa cells (CD10pos)
  IC50: 0.01 µM
[1]; after Suc-Ile-Ala-Leu-Dox 117 mg/kg, collected 0-2 hours
  Urine (% adm. dose) 2 hr: 0.06 % adm. dose
[1]; after Suc-Ile-Ala-Leu-Dox 117 mg/kg, collected 2-24 hours
  Urine (% adm. dose) 24 hr: 0.36 % adm. dose
[1]; mouse, in vivo, 4 h
  Plasma (% adm. dose) 4 hr: 0.00 % adm. dose
LNCaP xenografts; 3 mg/kg Q6DX2
  % Weight Loss at the end of study: 60%
  Growth Inhibition: 29%
  Time: 50% Weight Loss: 36 days
LNCaP xenografts; 4 mg/kg Q6DX2
  Growth Inhibition: 29%
LNCaP xenografts; 4 mg/kg Q6DX2, mice with toxic weight loss
  % Weight Loss at the end of study: 80%
LNCaP xenografts; 4 mg/kg Q6DX2, time for 50% of mice to reach toxic weight loss
  Time: 50% Weight Loss: 33 days
[2]; 4 mg/kg Q7D × 3
  TGI D22: 52.2 ± 28.8%
  Tumor Weight (mg) D22: 323.8 ± 60.8 mg
  Toxic Endpoint: 1
  Cancer Endpoint: 4
[2]; 4 mg/kg Q7D × 3, Day 22
  loss of group mean adjusted body weight: about 7%
[2]; 4 mg/kg Q7D × 3, N 8
  Survivor D36: D36: 3

## CC[C@H](C)[C@H](NC(=O)CCC(=O)O)C(=O)N[C@@H](C)C(=O)N[C@@H](CC(C)C)C(=O)N[C@H]1C[C@H](O[C@H]2C[C@](O)(C(=O)CO)Cc3c(O)c4c(c(O)c32)C(=O)c2c(OC)cccc2C4=O)O[C@@H](C)[C@H]1O [Suc-Ile-Ala-Leu-Dox]
Namalwa cells (CD10pos)
  IC50: 6.47 µM
  Ratio Ball-1:Namalwa: 4
Normal ICR mice; intravenous bolus, Day 49
  SD-MTD: 94 mg/kg
Normal ICR mice; relative to doxorubicin on a molar basis
  SD-MTD Molar Ratio (Dox=): 3.5
[1]; mouse, in vivo, after Suc-Ile-Ala-Leu-Dox 117 mg/kg, collected 0-2 hours, read-out: Urine (% adm. dose) 2 hr
  dose excreted: 3.9%
[1]; mouse, in vivo, after Suc-Ile-Ala-Leu-Dox 117 mg/kg, collected 2-24 hours, read-out: Urine (% adm. dose) 24 hr
  dose excreted: 15%
LNCaP xenografts; 75 mg/kg Q6DX2
  Time: 50% Weight Loss: 26 days
  Time: 100% Weight Loss: 43 days
LNCaP xenografts; 94 mg/kg Q6DX2
  Time: 50% Weight Loss: 19 days
  Time: 100% Weight Loss: 36 days
[3]
  Major Plasma Metabolite: Leu-Dox
[3]; [4]
  Plasma AUC0-6 hr of AL-Dox or AG-Dox*: 1.0 µM·h
  Plasma AUC0-6 hr of L-Dox or G-Dox*: 6.2 µM·h
[3]; single IV bolus approximately 100 μmol/Kg of prodrug
  Plasma AUC0-6 hr of Dox: 0.9 µM·h

## COc1cccc2c1C(=O)c1c(O)c3c(c(O)c1C2=O)C[C@@](O)(C(=O)CO)C[C@@H]3O[C@H]1C[C@H](NC(=O)[C@H](CC(C)C)NC(=O)[C@H](C)NC(=O)[C@H](CC(C)C)NC(=O)CCNC(=O)CCC(=O)O)[C@H](O)[C@H](C)O1 [Suc-βAla-Leu-Ala-Leu-Dox]
Namalwa cells (CD10pos)
  Ratio Ball-1:Namalwa: 3
Normal ICR mice; 75 mg/kg dose group, by Day 35
  mortality: 40%
LNCaP xenografts; 40 mg/kg Q6DX2
  Time: 50% Weight Loss: 33 days
  Time: 100% Weight Loss: 54 days
LNCaP xenografts; 50 mg/kg Q6DX2
  Time: 50% Weight Loss: 19 days
  Time: 100% Weight Loss: 40 days
LNCaP xenografts; 62 mg/kg Q6DX2
  Time: 50% Weight Loss: 15 days
  Time: 100% Weight Loss: 33 days
[2]; 32 mg/kg (18 Dox equi) Q7D × 3
  TGI D22: 82.8 ± 27.7%
  Tumor Weight (mg) D22: 116.3 ± 30.2 mg
[2]; 32 mg/kg Q7D × 3, N 8
  Survivor D36: 8**
[2]; 32 mg/kg Q7D × 3
  Toxic Endpoint: 0
  Cancer Endpoint: 0
[2]; 40 mg/kg Q7D × 3
  Toxic Endpoint: 0
  Cancer Endpoint: 0
[2]; 50 mg/kg (28 Dox equi) Q7D × 3
  TGI D22: 78.8 ± 27.5%
  Tumor Weight (mg) D22: 143.4 ± 19.0 mg
[2]; 50 mg/kg Q7D × 3, N 8
  Survivor D36: 8**
[2]; 50 mg/kg Q7D × 3
  Toxic Endpoint: 0
  Cancer Endpoint: 0
[2]; all three doses (32, 40, 50 mg/kg) Q7D × 3, to Day 36
  maximal loss of group mean adjusted body weight: ≤ 3%
[3]
  Major Plasma Metabolite: Ala-Leu-Dox
